Laboratory results: ChEMBL document CHEMBL1201862, “PubChem BioAssay data set” (2004)
Calls of active or inactive are those of the source. For most assays here, no stated cut-off is given here; in the data, actives have a measured IC50 and inactives only a lower limit.

Tests used:
INS1 = assay: beta cell apoptosis inhibitors, cytokine rescue, dose response, luminescence, retest (AID 449756); format: functional, cell-based; conditions: Rattus norvegicus;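 further: cell death triggered by IL-1 beta plus TNF-alpha plus IFN-gamma mixture; protective hits raise ATP signal compared with cytokine alone wells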
[1] = target: T1, Apoptotic protease-activating factor 1 (Homo sapiens, UniProt O14727); format: functional
T1 sequence (O14727 whole entry): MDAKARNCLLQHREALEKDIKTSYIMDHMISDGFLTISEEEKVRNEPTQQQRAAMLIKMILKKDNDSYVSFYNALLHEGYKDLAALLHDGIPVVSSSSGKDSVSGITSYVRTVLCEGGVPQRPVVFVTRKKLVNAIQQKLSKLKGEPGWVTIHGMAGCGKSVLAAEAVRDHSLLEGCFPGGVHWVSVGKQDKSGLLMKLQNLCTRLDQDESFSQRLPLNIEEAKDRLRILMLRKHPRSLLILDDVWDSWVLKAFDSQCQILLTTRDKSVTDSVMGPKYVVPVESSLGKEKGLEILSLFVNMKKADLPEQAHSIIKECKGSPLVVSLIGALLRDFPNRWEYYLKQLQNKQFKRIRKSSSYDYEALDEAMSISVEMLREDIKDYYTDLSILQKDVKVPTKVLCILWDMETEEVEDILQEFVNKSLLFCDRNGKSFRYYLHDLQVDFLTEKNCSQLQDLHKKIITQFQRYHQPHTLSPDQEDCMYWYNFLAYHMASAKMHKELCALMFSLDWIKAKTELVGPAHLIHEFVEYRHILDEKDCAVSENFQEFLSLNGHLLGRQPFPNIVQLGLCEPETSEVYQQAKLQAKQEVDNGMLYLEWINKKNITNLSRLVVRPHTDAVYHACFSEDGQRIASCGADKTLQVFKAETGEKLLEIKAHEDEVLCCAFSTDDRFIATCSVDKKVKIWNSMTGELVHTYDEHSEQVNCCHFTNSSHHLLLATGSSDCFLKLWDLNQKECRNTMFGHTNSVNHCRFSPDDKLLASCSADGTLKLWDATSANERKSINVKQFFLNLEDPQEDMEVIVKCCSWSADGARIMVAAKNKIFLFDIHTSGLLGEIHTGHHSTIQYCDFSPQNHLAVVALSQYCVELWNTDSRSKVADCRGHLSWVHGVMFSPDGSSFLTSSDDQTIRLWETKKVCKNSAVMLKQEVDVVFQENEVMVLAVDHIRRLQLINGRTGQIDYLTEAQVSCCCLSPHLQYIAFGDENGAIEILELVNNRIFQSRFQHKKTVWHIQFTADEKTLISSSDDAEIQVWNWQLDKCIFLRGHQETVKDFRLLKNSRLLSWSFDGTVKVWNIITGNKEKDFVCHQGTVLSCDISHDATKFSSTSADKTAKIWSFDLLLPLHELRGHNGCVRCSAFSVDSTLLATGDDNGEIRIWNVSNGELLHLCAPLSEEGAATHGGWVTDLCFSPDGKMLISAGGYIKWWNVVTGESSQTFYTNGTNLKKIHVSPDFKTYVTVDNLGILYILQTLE

[2] = target: T2, Sentrin-specific protease 6 (Homo sapiens, UniProt Q9GZR1); format: functional;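 further: Luminescence-based dose-response confirmatory assay of SENP6 inhibition, following up an ultra-high-throughput screen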
T2 sequence (Q9GZR1 whole entry): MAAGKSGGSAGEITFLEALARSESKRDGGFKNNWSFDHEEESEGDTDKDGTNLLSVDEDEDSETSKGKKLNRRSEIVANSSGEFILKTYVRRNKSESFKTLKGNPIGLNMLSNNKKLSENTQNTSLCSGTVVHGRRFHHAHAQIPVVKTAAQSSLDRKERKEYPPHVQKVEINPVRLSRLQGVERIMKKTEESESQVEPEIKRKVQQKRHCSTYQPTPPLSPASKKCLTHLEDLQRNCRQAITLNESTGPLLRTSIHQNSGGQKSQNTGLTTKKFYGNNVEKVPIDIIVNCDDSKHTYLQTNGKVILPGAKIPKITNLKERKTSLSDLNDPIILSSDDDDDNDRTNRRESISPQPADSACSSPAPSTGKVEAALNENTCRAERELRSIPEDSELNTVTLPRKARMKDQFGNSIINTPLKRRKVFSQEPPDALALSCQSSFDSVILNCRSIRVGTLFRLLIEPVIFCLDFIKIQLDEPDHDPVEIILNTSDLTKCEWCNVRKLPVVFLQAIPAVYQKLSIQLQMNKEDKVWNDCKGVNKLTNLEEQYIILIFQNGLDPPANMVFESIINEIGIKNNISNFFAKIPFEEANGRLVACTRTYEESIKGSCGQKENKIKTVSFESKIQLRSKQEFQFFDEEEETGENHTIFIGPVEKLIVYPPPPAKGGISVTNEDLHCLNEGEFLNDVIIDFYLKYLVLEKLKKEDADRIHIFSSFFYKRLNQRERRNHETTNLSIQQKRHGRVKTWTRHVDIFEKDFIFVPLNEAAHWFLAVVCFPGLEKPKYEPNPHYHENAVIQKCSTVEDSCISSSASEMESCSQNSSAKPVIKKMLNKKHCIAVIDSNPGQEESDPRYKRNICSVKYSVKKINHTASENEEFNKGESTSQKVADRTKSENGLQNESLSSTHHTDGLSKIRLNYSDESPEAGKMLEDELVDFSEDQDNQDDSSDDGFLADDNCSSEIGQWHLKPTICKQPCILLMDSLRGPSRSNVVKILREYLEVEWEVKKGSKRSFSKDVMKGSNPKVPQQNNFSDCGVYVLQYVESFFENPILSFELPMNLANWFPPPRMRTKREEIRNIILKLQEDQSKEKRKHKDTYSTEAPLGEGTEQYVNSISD

Caspase-3 = target: T3, Caspase-3 (Homo sapiens, UniProt P42574); format: functional;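 further: Dose-response selectivity test against caspase-3 for candidate inhibitors of sentrin-specific proteases (SENPs)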
T3 sequence (P42574 whole entry): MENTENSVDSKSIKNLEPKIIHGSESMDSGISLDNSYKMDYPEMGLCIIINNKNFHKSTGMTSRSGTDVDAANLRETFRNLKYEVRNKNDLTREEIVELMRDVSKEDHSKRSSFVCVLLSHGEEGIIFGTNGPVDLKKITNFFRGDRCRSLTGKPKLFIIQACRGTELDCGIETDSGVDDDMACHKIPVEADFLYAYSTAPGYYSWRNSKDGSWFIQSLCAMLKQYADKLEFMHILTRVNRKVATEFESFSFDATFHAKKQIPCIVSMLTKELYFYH

[3] = target: T4, Sentrin-specific protease 8 (Homo sapiens, UniProt Q96LD8); format: functional;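 further: luminescence read-out of SENP8 inhibition, dose-response confirmation following an ultra-high-throughput screen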
T4 sequence (Q96LD8 whole entry): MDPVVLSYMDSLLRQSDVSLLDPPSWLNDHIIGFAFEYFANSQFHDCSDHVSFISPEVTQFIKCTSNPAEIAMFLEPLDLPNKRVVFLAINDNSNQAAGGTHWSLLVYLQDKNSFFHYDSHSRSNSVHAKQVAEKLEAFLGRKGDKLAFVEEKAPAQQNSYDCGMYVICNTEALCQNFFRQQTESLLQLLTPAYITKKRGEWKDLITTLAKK

[4] = tested on: Streptococcus sp. 'group A'; assay: growth inhibition of control SK(-) GAS strain, dose response, counter-screen for streptokinase expression inhibitor project, luminescence, kanamycin, BacTiterGlo, confirmation (AID 1900); format: functional, organism-based

O=C1C(Cl)=C(NCc2cccnc2)C(=O)c2ccccc21
active: AC50 (INS1) 7.26 µM | IC50 [1] 10.1 µM

Nc1ccc(Br)c2cccnc12
active: IC50 [2] 7.46 µM | IC50 (Caspase-3) 10.4 µM | IC50 [3] 10 µM | IC50 [1] 39.1 µM

CN(C)c1ncc(C2=C(Cl)C(=O)C(N3CCCC3)=C(Cl)C2=O)s1
active: EC50 [4] 24.5 µM | IC50 [1] 25 µM

Cc1ccc(C(=O)c2c(C)oc3c2C(=O)C(=O)c2ccccc2-3)cc1
active: AC50 (INS1) 2.4 µM | IC50 [2] 4.76 µM | IC50 (Caspase-3) 29.1 µM | EC50 [4] 0.566 µM | IC50 [3] 7.82 µM | IC50 [1] 8.09 µM

Cc1cnc(NC(=O)c2sc3ccccc3c2Cl)s1
inactive: IC50 [2] > 100 µM
active: IC50 (Caspase-3) 6.67 µM | IC50 [3] 2.56 µM

O=C1C(O)=C/C(=N\c2ccccc2O)c2ccccc21
active: AC50 (INS1) 3.26 µM | IC50 [2] 2.95 µM | IC50 (Caspase-3) 8.23 µM | EC50 [4] 3.4 µM | IC50 [3] 5.23 µM | IC50 [1] 2.61 µM

Cc1ccc(Nc2cc(C)nn2-c2nc(C)cc(O)n2)cc1
active: AC50 (INS1) 0.6 µM | EC50 [4] < 0.06 µM
